Test results reported in patent publication US6982150B2, “System and method for identifying proteins involved in force-initiated signal transduction” (priority 2002, dated 2006).

Assays:
L-929 cells = test: Stretch-dependent paxillin assembly at focal contacts in intact cells (fluorescence microscopy / immunostaining); assay type: cell-based, Mouse; settings: intact L-929 cells, biaxial stretch 10%, genistein 100 μM, FIG. 4B
Procedure: Subconfluent L-929 cells transiently transfected with GFP paxillin in the collagen-coated (type I) silicone membrane (Flexcell International, Hillsborough, N.C.) were stretched biaxially (10% in each dimension) for 2 min., and the GFP fluorescence was observed by fluorescence microscopy. Five min after stretch, the silicone substrate was relaxed to its original size, and the fluorescence was recorded. For endogenous paxillin measurement, L-929 cells cultured in silicone membranes were stretched likewise for 2 min, and fixed with 3.7% formaldehyde/PBS.
GFP fluorescence of L-929 cells transfected with GFP-paxillin were also observed with an Olympus BX50 microscope with a 60×, 0.9 NA water immersion objective.
For immunostaining, cells were fixed with 3.7% formaldehyde/PBS, perneabilized with 0.1% Triton X-100/PBS before incubation with antibodies to paxillin and vinculin.

[1] = test system: Triton X-100-insoluble cytoskeletons of L-929 cells; test: Stretch-dependent GFP paxillin binding to Triton X-100-insoluble cytoskeletons (fluorescence, Western blot); design: species or system Mouse
Procedure: Cells were washed once with isotonic ISO buffer (20 mM Hepes, pH 7.5, 150 mM NaCl, 0.5 mM EDTA, 1 mM DTT, 4 mM MgCl2, 1 mM PMSF, 15 μg/ml aprotinin), treated with 0.25% Triton X-100/ISO(+) buffer (ISO buffer supplemented with 0.5 mM ATP, 2% BSA) for 2 min. and washed three times with ISO (+) buffer.
The supernatant was filtrated using PD-10 column (Amersham Pharmacia Biotech, Piscataway, N.J.) preequilibrated with ISO buffer.
L-929 cells were cultured on the silicone substrate and Triton X-100 treated for 2 minutes, as indicated above. Thereafter, the Triton-X-100-insoluble cytoskeleton was washed 3 times with ISO(+) buffer to remove Triton X-100 and remaining Triton-soluble cellular components. After the third wash, the Triton X-100-insoluble cytoskeleton in ISO (+) buffer was left unstretched, stretched for 15 sec, or relaxed (pre-stretched and released from the stretch). The buffer was replaced with the lysate from L929 cells or 293 cells stably transfected with GFP paxillin and incubated for 2 minutes. The lysate was washed 4 times with ISO(+) buffer.
Cytoskeletons were stretched or unstretched. […]

Row | Structure (SMILES) | stretch-dependent paxillin accumulation (L-929 cells) | amount of GFP paxillin bound to the stretched cytoskeletons ([1]; cells treated prior to Triton extraction, subconfluent, FIG. 5A, 5B, 5D) | stretch-dependent GFP paxillin binding ([1]; 1 mM added to lysates together with PAO, DTT excluded, FIG. 5C)
1 | O=c1c(-c2ccc(O)cc2)coc2cc(O)cc(O)c12 [genistein] | not inhibited | increase | –
2 | [Na+].[Na+].[Na+].[O]=[V]([O-])([O-])[O-] [sodium orthovandate] | – | – | did not affect
